Measured values taken from ChEMBL document CHEMBL5576088, “Skin- and airway-deliverable TRPA1 inhibitor” (Bioorg Med Chem, 2024).
Active and inactive are the calls of the source. The calls are words filed in the database; no cut-off is given here.

Columns and labels:
[1] = target: T1, Transient receptor potential cation channel subfamily A member 1 (Homo sapiens, UniProt O75762); test: Antagonist activity at human TRPA1 expressed in HEK293T cells assessed as inhibition of AITC-induced current by whole cell patch clamp analysis; assay type: cell-based
T1 sequence (O75762 whole entry): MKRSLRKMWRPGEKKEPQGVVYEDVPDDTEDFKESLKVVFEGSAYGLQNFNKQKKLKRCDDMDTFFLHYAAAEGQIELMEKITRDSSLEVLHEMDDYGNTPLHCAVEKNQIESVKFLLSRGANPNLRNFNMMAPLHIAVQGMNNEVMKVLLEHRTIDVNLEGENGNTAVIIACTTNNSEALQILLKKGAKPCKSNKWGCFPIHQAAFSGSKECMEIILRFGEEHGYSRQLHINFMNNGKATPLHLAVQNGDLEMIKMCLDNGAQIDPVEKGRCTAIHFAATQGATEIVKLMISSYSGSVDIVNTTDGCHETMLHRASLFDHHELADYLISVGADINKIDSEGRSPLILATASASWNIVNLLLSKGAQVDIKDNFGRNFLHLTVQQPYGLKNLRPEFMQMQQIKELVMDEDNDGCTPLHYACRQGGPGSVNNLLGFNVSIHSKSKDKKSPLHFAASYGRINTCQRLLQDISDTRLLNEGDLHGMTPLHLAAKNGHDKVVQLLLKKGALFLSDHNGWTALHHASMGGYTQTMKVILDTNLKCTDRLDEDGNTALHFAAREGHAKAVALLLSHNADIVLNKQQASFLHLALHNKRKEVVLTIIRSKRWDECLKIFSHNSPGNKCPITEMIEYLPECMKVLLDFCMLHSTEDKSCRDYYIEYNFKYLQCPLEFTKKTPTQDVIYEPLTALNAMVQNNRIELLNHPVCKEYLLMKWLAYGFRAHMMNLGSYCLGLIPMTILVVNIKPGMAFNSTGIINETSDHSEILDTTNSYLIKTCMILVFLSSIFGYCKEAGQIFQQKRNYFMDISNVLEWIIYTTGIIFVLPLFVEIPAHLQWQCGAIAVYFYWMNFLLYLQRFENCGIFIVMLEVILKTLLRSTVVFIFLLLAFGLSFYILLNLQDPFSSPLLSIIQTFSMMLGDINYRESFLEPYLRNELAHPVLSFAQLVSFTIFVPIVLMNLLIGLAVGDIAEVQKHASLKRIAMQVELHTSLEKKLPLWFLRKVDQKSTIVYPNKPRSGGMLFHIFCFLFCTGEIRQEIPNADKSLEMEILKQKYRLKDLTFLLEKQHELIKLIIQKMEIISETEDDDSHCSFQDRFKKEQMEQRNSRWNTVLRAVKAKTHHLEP

[2] = target: T1, Transient receptor potential cation channel subfamily A member 1; test: Antagonist activity at wildtype human TRPA1 expressed in HEK293 cells assessed as inhibition of AITC-induced intracellular Ca2+ flux at 100 uM in presence of 5 uM AITC by Fluo4-AM dye based fluorescence analysis; assay type: cell-based; conditions: filed as antagonist
[3] = target: T1, Transient receptor potential cation channel subfamily A member 1; test: Antagonist activity at human TRPA1 expressed in HEK293 cells assessed as inhibition of AITC-induced intracellular Ca2+ flux in presence of 5 uM AITC by Fluo4-AM dye based fluorescence analysis; assay type: cell-based
Homo sapiens = test: Inhibition of methylparaben/phenoxyethanol-induced sensory irritation in human at 0.2% applied topically and measured for 8 mins; assay type: functional, organism-based; conditions: route top
[4] = target: T1, Transient receptor potential cation channel subfamily A member 1; test: Antagonist activity at full length human TRPA1 expressed in HEK293 cells assessed as inhibition of AITC-induced intracellular Ca2+ flux in presence of 10 uM AITC by Fluo4-AM dye based fluorescence analysis; assay type: cell-based

## CC1(C)[C@@H]2CC[C@@]1(C)[C@](C)(O)C2
[1]
  IC50: 120 µM

## CC(C)c1ccc(NC(=O)Cn2cnc3c2c(=O)n(C)c(=O)n3C)cc1
[2]
  Activity: Active

## CC(CO)C(C)Cc1ccccc1 (mixture of isomers)
[3]
  IC50: 17 µM

## CCC(O)C(C)Cc1ccccc1 (mixture of isomers)
[3]
  IC50: 21.8 µM

## CC(CCO)CC(C)c1ccccc1 (mixture of isomers)
[3]
  IC50: 19.8 µM

## C/C(=C\C(C)c1ccccc1)CO (racemic)
[3]
  IC50: 32.1 µM

## CC1(C)C2CCC1(C)C(O)C2 (racemic) [BORNEOL]
Homo sapiens
  inhibition: inactive
[4]
  IC50: 529 µM

## CC(=C\c1ccc(Cl)cc1)/C(C)=N/O [AP18 5]
[4]
  IC50: 1.72 µM
[2]
  Activity: Active
